Measured values reported in US6130248A, “Tricarboxylic acid-containing oxyalkyl esters and uses thereof” (Bar-ILAn University, priority 1996, dated 2000).

What was measured:
neoplastic cells = details: in vitro; cited from earlier work
cancer = cancer patients; cited from earlier work
[1] = test system: c-myc in HL-60 promyelocytic leukemia; details: cited from earlier work
CFPAC cells = experiment: SRB cell proliferation assay; assay type: cell-based
Procedure: (§1) The inhibition of cell proliferation was measured in the indicated cancer cell lines using the sulforhoamine B (SRB) assay as described by Monks et al., J. Natl. Can. Inst. […] The SRB assay is used to screen for anti-cancer drugs.

HL-60 cells = experiment: SRB cell proliferation assay; assay type: cell-based; details: Homo sapiens; HL-60, SRB
Procedure: as §1

HT-29 cells = experiment: SRB cell proliferation assay; assay type: cell-based; details: Homo sapiens; HT-29, SRB
Procedure: as §1

MCF7 cells = experiment: SRB cell proliferation assay; assay type: cell-based; details: Homo sapiens
Procedure: as §1

| IC50 (HL-60 cells) [µM] | IC90 (HL-60 cells) [µM] | IC50 (HT-29 cells) [µM] | IC90 (HT-29 cells) [µM] | IC50 (MCF7 cells) [µM] | IC90 (MCF7 cells) [µM] | Compound | differentiating and antiproliferative activity (neoplastic cells) | clinical antitumor efficacy (cancer) | expression of c-myc [1] | IC50 (CFPAC cells) [µM] | IC90 (CFPAC cells) [µM] |
| --- | --- | --- | --- | --- | --- | --- | --- | --- | --- | --- | --- |
| – | – | – | – | – | – | CCCC(=O)O [BA, Butyric acid] | potent differentiating and antiproliferative agent in a wide spectra of neoplastic cells | minimal or transient efficacy | decrease in the expression | – | – |
| 39 | 59.9 | 144 | 231 | 180 | 238 | CCCC(=O)OCOC(=O)C(C)(C)C [AN-9, pivaloyloxymethyl butyrate] | – | – | – | 55.9 | 89.8 |
